The source made the active and inactive calls. The calls are words filed in the database; no cut-off is given here.

In data set [1] the target is Coagulation factor IX (Homo sapiens) (UniProt P00740). Nature of the data set: Inhibition of human factor 9a assessed as residual activity at 500 uM by spectrophotometric assay.
Data set [2] concerns the target Prothrombin (Homo sapiens) (UniProt P00734). Put plainly: Inhibition of human thrombin using spectrozyme TH as substrate assessed as residual activity at 500 uM by spectrophotometric assay.
Data set [3] deals with Coagulation factor XI (Homo sapiens) (UniProt P03951). Nature of the data set: Inhibition of human factor 11a assessed as residual activity at 500 uM by spectrophotometric assay.
Coagulation factor XI (Homo sapiens), sequence (P03951 19-387 limits assumed): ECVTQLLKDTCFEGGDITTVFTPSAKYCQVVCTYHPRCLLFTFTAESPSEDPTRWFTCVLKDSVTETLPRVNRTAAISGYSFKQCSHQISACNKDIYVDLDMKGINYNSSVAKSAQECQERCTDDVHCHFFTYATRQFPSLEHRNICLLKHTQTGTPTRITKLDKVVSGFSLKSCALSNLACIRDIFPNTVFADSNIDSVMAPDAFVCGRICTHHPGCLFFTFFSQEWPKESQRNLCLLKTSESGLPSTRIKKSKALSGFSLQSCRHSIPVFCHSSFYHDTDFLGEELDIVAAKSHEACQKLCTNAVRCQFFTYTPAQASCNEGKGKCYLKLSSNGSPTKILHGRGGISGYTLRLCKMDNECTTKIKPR
Coagulation factor XI (Homo sapiens), sequence (P03951 388-625 limits assumed): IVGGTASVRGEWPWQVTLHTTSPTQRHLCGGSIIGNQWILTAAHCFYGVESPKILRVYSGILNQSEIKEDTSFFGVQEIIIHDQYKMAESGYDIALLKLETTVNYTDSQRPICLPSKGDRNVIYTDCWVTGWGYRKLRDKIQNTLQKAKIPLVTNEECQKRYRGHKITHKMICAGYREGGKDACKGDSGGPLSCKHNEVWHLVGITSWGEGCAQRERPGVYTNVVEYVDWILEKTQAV
Data set [4] addresses T1, Coagulation factor VII (Homo sapiens) (UniProt P08709).
T1 sequence (whole entry): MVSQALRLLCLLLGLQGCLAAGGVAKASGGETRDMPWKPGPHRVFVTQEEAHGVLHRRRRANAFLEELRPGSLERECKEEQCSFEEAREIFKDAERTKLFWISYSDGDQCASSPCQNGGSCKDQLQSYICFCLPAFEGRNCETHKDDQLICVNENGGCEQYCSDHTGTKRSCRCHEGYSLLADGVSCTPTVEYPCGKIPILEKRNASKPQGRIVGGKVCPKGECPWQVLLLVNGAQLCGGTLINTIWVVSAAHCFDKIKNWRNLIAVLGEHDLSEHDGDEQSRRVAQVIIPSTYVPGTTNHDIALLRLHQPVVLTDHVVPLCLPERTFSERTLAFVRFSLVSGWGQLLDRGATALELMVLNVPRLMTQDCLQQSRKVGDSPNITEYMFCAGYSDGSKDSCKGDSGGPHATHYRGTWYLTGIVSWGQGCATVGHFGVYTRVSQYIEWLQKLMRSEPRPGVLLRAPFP
Nature of the data set: Inhibition of human factor 7a assessed as residual activity at 500 uM by spectrophotometric assay.

The target of data set [5] is Coagulation factor X (Homo sapiens) (UniProt P00742). Put plainly: Inhibition of human factor 10a assessed as residual activity at 500 uM by spectrophotometric assay.
Coagulation factor X (Homo sapiens), sequence (P00742 41-179 limits assumed): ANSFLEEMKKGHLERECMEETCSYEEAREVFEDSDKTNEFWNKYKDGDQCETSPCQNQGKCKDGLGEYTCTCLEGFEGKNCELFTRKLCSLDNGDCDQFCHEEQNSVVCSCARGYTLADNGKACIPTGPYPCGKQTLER
Coagulation factor X (Homo sapiens), sequence (P00742 235-488 limits assumed): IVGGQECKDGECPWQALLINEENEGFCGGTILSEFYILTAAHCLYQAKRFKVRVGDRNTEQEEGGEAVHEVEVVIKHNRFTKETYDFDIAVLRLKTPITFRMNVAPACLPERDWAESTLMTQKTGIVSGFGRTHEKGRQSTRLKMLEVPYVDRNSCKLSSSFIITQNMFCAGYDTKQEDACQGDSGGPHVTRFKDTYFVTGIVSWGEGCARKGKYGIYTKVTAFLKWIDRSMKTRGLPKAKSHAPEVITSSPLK
In data set [6] the target is T2, Coagulation factor XII (Homo sapiens) (UniProt P00748).
T2 sequence (whole entry): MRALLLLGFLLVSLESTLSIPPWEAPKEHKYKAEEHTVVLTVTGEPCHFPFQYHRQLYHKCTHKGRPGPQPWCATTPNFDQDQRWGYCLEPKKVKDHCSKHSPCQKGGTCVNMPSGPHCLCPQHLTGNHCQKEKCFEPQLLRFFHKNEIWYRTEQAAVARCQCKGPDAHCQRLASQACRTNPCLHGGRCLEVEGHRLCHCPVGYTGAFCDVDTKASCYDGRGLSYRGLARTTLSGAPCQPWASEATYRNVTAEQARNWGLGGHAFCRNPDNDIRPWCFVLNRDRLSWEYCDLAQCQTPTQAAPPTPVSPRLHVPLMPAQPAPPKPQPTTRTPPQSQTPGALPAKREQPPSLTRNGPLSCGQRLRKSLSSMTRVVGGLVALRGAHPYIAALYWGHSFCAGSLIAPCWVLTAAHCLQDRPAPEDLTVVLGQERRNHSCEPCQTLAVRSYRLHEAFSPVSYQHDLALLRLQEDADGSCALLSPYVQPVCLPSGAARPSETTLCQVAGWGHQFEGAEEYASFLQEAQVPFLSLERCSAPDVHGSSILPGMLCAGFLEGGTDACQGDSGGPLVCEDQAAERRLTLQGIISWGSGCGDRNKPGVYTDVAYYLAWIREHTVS
Put plainly: Inhibition of human factor 12a assessed as residual activity at 500 uM by spectrophotometric assay.

Data set [7] addresses Prothrombin (Homo sapiens) (UniProt P00734). Put plainly: Non-competitive inhibition of human thrombin using spectrozyme TH as substrate assessed as effect on substrate Km at 400 uM by Michaelis-Menten kinetics.
Data set [8] relates to COc1cc2occ(C(=O)OC(C)(C)C)c2cc1OCc1nc2ccc(OS(=O)(=O)O)cc2s1. The following applies: Homo sapiens; 400 uM.
Description: Non-competitive inhibition of human thrombin using spectrozyme TH as substrate assessed as reduction in substrate Vmax at 400 uM by Michaelis-Menten kinetics

Coagulation factor IX (Homo sapiens), sequence (P00740 47-191 limits assumed): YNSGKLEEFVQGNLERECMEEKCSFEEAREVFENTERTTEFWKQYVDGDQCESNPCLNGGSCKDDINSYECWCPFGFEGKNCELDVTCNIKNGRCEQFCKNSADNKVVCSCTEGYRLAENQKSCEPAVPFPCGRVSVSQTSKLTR
Coagulation factor IX (Homo sapiens), sequence (P00740 227-461 limits assumed): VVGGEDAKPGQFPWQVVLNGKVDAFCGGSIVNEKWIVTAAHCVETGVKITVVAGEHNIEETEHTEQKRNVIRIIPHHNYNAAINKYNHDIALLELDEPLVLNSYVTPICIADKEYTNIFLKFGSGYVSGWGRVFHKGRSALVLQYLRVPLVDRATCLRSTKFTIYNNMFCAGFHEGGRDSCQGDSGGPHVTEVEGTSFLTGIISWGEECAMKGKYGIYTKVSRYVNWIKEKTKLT

Consider `Cc1nc2ccc(OS(=O)(=O)O)cc2s1`, for which the Activity in data set [1] worked out at 94%; in data set [2], 99%; in data set [3] it was 52%; in data set [4] it was 91%; in data set [5], 77%; in data set [6], 95%.

Take `Cc1nc2ccc(OCc3nc4ccc(OS(=O)(=O)O)cc4s3)cc2s1`: the Activity in data set [1] turned out to be 110%; in data set [2], 48%; in data set [3] it was 120%; in data set [4], 102%; in data set [5], 105%; in data set [6], 97%.

With `CCOC(=O)c1c(COc2cc3c(C(=O)OCC)c(Cc4ccccc4)oc3cc2OC)[nH]c2ccc(OS(=O)(=O)O)cc12`, the Activity in data set [1] was found to be 98%; in data set [2] it was 29%; in data set [3], 0%; in data set [4] it was 109%; in data set [5], 37%; in data set [6] it was 100%.

`CCOC(=O)c1c(C)[nH]c2ccc(OCc3c(C(=O)OCC)c4cc(OS(=O)(=O)O)ccc4n3C(=O)OC(C)(C)C)cc12`: the Activity in data set [1] was 98%; in data set [2], 42%; in data set [3] it was 0%; in data set [4], 99%; in data set [5], 0%; in data set [6], 92%.

For `CCOC(=O)c1c(COc2cc3c(C(=O)OCC)coc3cc2OC)[nH]c2ccc(OS(=O)(=O)O)cc12`, the Activity came out at 98% in data set [1]; 102% in data set [2]; 111% in data set [3]; 87% in data set [4]; 34% in data set [5]; 97% in data set [6].

`CCOC(=O)c1c(C)[nH]c2ccc(OS(=O)(=O)O)cc12`: the Activity in data set [1] worked out at 98%; in data set [2] it was 100%; in data set [3], 114%; in data set [4], 90%; in data set [5], 120%; in data set [6], 90%.

For `COc1cc2occ(C(=O)OC(C)(C)C)c2cc1OCc1nc2ccc(OS(=O)(=O)O)cc2s1`, the Activity in data set [1] amounted to 101%; in data set [2] it was 30%; in data set [3], 0%; in data set [4] it was 98%; in data set [5], 22%; in data set [6], 100%. Besides, in data set [7], the inhibition result was “Active”.

Turning to `CCOC(=O)c1c(C)oc2cc(OC)c(OCc3oc4cc(OC)c(OCc5nc6ccc(OS(=O)(=O)O)cc6s5)cc4c3C(=O)OCC)cc12`, the Activity is 82% in data set [1]; 104% in data set [2]; 62% in data set [3]; 100% in data set [4]; 98% in data set [5]; 100% in data set [6].

For `CCOC(=O)c1c(COc2cc3c(C(=O)OCC)c(COc4cc5c(C(=O)OCC)c(C)oc5cc4OC)oc3cc2OC)[nH]c2ccc(OS(=O)(=O)O)cc12`, the Activity amounted to 109% in data set [1]; 46% in data set [2]; 16% in data set [3]; 92% in data set [4]; 33% in data set [5]; 97% in data set [6].

Take “Prothrombin (Homo sapiens) (from UniProt P00734)”: in data set [8], the Vmax came out at 24.5 mAU/min/µM.

As to `CCOC(=O)c1c(Cc2ccccc2)oc2cc(OC)c(OCc3nc4ccc(OS(=O)(=O)O)cc4s3)cc12`, the Activity in data set [1] is 90%; in data set [2], 108%; in data set [3], 88%; in data set [4] it was 100%; in data set [5] it was 90%; in data set [6], 96%.

The values above are taken from ChEMBL document CHEMBL3351582, “A simple, general approach of allosteric coagulation enzyme inhibition through monosulfated hydrophobic scaffolds” (Bioorg Med Chem Lett, 2014).
